The target of one data set is T1, PI3Kalpha (Homo sapiens, UniProt P42336).
T1 construct: partly as full-length kinases, partly as shortened fragments, but at least consisting of the functional kinase domains; purchased Upstate 14-602
The experiment in a line: Cell-free kinase assay (ALPHA technology), PI3Kalpha. The data set is classed as biochemical. The settings on record: at 100 μM ATP; recombinant human kinase. The protocol:
The inhibitory effect of the compounds according to the invention was tested on various serine/threonine, tyrosine and lipid kinases in enzymatic assays. Recombinant human kinases such as, for example, Erk2, PI3Kalpha and others were used in this case, partly as full-length kinases, partly as shortened fragments, but at least consisting of the functional kinase domains. The commercial kinase proteins (Proqinase, Upstate) were used as recombinant fusion proteins with GST (glutathion-S-transferase) or His-Tag. Depending on the type of substrate, the various kinase reactions were quantified by means of suitable ALPHA™ beads (Perkin-Elmer).
The substance testing is described in detail hereinafter for the Erk assay. To determine the IC50 value, the potential inhibitor substances were investigated in 10 semi-logarithmically graded concentrations of 3.16 nM-100 μM.
b) PI3K-ALPHAs (e.g. PI3Kalpha): the test substance, 1 ng PI3Kalpha (#14-602, Upstate), 100 μM ATP and 20 μM PIP2 substrate (#64910, Cayman Chemicals) were incubated on a 384-well Optiplate (Perkin-Elmer) for 1 h in 50 mM Hepes, 50 mM NaCl, 5 mM MgCl2, 0.05% Chaps, 5 mM DTT at pH 7.4. The kinase reaction was then stopped by adding ALPHA bead mixes (10 μg/ml, #6760603/Perkin-Elmer) pre-incubated with 1 nM GST:Grp1 fusion protein (Upstate) and 15 nM biotinylated PIP3 (#10009531, Cayman Chemicals) in 50 mM Hepes, 50 mM NaCl, 50 mM EDTA and 0.1% BSA and left to stand overnight.
The fluorescence was detected the following morning in a Envision plate reader (Perkin-Elmer).
The %-inhibition values per substance concentration were calculated by means of the following formula from the raw data determined in the Envision plate reader:
Eight determinations were made for each control and two for the substance samples. The 0% control either contains no ATP or no substrate, the 100% control (fully active kinase) contains no test substance. The IC50 values were determined using GraphPadPrism.

Another data set deals with T2, Erk2.
T2 construct: partly as full-length kinases, partly as shortened fragments, but at least consisting of the functional kinase domains; purchased Upstate 14-173
T2 sequence (P63085 2-358 limits assumed): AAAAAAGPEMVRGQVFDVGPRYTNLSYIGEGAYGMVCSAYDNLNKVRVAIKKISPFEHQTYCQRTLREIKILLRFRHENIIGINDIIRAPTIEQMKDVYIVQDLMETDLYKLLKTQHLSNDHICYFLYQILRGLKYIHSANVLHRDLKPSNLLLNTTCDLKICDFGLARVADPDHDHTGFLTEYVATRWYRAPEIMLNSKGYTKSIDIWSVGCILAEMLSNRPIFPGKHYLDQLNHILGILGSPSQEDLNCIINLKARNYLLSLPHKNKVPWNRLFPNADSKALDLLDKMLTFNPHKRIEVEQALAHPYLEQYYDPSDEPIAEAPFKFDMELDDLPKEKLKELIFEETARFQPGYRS
The experiment in a line: Cell-free kinase assay (ALPHA technology), Erk2. The data set is classed as biochemical. The settings on record: at 10 μM ATP; recombinant human kinase.

In a further data set the test system is Hct116. The experiment in a line: XTT assay, anti-proliferative effect. It counts as cell-based. The settings on record: Homo sapiens, HCT-116; Hct116 cells, ~48 h incubation. As to the method: The principle of this test is based on the intracellular reduction of the tetrazolium dye XTT (sodium 3′-[1-(phenylaminocarbonyl)-3,4-tetrazolium]-bis(4-methoxy-6-nitro)benzene sulfonic acid, Sigma) to a formazan dye by mitochondrial dehydrogenases. The dye is only formed by metabolically active cells and its photometrically measurable intensity is a quantitative indicator for the presence of living cells. The reduction of dye formation by incubation of the cells with substances serves as a parameter for the anti-proliferative effect.
The tumour cell lines (ATCC) were injected into 96-well microtitre plates in a defined cell number (1250 cells/well for Hct116) and then incubated overnight in an incubator at 37° C., 5% CO2 and 95% air humidity. The test substances were prepared as stock solutions (10 mM) in DMSO. To determine the EC50 values the potential inhibitor substances were added to the cells in half-logarithmically graded dilutions, resulting in final concentrations of 1.58 nM-50 μM. The cell plates were then incubated for ˜48 h in an incubator at 37° C., 5% CO2 and 95% air humidity.
For the detection reaction the substrate XTT was mixed with PMS (N-Methyl dibenzopyrazine methylsulfate, Sigma) and added to the cells so that a final concentration of 325 μg XTT/ml and 2.5 μg PMS/ml was obtained. It was then incubated for 3 h at 37° C., 95% air humidity. The formazan salt formed by the cellular dehydrogenases could then be quantified by adsorption at 490 nm.
The % inhibition value was evaluated by means of the following formula from the values for the optical densities measured in each case at 490 nm:
Eight determinations were made for each control and two for the substance samples. The 0% control contains no cells, the 100% control (proliferation control) contains no test substance. The EC50 values were determined using GraphPadPrism.
(In general: Tetrazolium assays rely on reduction of a dye to a coloured formazan, in cell work by metabolically active cells.)

By IC50 is commonly meant the point on the concentration scale where inhibition reaches its midpoint. Usually EC50 stands for the concentration at which the effect is half-maximal. A low value points to a more potent agent. As a reminder, the melting point is the temperature of the solid-liquid transition.

T1 sequence (P42336 whole entry, the tested form may be a part): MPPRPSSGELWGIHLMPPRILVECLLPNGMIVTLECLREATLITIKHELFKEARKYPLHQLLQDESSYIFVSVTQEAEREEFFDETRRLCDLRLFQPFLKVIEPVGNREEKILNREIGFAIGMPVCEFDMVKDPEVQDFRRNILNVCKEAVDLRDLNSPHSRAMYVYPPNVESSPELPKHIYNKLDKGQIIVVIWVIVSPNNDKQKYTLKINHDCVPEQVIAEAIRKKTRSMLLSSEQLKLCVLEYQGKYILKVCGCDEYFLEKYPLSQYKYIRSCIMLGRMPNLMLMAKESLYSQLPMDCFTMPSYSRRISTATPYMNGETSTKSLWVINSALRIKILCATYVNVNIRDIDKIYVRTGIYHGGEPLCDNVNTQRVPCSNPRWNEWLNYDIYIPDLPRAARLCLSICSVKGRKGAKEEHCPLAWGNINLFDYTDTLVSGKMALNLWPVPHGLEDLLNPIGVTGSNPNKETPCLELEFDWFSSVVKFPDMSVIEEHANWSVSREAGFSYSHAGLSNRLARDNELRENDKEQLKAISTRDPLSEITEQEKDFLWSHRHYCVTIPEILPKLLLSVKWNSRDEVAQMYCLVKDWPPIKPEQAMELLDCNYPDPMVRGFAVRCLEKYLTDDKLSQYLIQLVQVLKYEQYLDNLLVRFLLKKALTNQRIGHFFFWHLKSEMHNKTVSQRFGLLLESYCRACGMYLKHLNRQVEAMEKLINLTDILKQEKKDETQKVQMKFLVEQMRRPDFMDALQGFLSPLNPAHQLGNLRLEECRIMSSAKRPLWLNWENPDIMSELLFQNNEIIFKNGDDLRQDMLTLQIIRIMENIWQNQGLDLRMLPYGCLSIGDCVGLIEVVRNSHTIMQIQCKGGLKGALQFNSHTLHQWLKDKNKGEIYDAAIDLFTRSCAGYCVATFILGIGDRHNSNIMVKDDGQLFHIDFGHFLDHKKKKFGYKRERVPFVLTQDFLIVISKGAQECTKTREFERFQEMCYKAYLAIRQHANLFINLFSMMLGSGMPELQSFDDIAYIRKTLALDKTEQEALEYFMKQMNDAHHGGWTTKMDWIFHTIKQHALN
T1 sequence (P27986 whole entry partner, the tested form may be a part): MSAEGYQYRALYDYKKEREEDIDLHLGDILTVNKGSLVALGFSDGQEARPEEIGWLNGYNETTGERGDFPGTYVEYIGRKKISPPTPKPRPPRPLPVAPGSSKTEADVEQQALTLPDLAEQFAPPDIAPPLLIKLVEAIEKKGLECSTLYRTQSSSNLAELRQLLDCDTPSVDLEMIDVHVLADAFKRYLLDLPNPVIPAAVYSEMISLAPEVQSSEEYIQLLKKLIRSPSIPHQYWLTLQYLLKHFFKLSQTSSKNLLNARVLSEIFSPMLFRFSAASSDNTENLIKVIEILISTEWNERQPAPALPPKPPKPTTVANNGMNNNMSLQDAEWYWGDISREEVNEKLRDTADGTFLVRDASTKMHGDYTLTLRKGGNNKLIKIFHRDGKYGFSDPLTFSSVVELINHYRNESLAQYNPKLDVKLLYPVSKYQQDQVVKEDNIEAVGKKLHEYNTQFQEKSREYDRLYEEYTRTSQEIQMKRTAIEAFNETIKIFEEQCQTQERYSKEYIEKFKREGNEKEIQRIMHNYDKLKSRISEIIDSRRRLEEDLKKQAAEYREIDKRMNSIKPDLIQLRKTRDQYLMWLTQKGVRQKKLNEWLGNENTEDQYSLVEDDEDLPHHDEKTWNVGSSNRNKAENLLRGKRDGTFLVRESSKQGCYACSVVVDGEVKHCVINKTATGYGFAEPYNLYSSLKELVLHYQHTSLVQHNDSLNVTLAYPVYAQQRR

With `CCNC(=S)Nc1ccc2ncc(-c3cnn(Cc4cccc(OC(F)F)c4)c3)nc2n1` [Compound 27, 1-{3-[1-(3-Difluoromethoxy-benzyl)-1H-pyrazol-4-yl]-pyrido[2,3-b]pyrazin-6-yl}-3-ethyl-thiourea], the figures for the IC50 at PI3Kalpha and on Erk2 were 59 nM and 750 nM, respectively. In the data set on Hct116, this molecule showed an EC50 of 1530 nM.
The molecule `CCNC(=S)Nc1ccc2ncc(-c3cnn(Cc4ccc(OC)c(OC)c4)c3)nc2n1` [Compound 28, 1-{3-[1-(3,4-Dimethoxy-benzyl)-1H-pyrazol-4-yl]-pyrido[2,3-b]pyrazin-6-yl}-3-ethyl-thiourea] returned a melting point of 213 °C. Also, the IC50 at PI3Kalpha came out at 82 nM. For the same molecule, at Erk2, the IC50 is 112 nM. The same molecule gave an EC50 in the data set on Hct116 of 1650 nM.
Molecule `CCNC(=S)Nc1ccc2ncc(-c3cnn(Cc4cccc(OC)c4F)c3)nc2n1` [Compound 29, 1-Ethyl-3-{3-[1-(2-fluoro-3-methoxy-benzyl)-1H-pyrazol-4-yl]-pyrido[2,3-b]pyrazin-6-yl}-thiourea] had a melting point of 215 to 220 °C. For the same molecule, the IC50 on PI3Kalpha is 112 nM. Besides, the IC50 on Erk2 stood at 492 nM. Also, the EC50 in the data set on Hct116 stood at 2560 nM.
The molecule `CCNC(=S)Nc1ccc2ncc(-c3cnn(Cc4cccc(OC)c4)c3)nc2n1` [Compound 40, 1-Ethyl-3-{3-[1-(3-methoxy-benzyl)-1H-pyrazol-4-yl]-pyrido[2,3-b]pyrazin-6-yl}-thiourea] had a melting point of 217 to 220 °C. Besides, on PI3Kalpha, the IC50 came to 168 nM. The IC50 at Erk2 is 336 nM. Besides, the EC50 with Hct116 turned out to be 2570 nM.
`CCNC(=S)Nc1ccc2ncc(-c3cnn(Cc4cccc(C)c4)c3)nc2n1` [Compound 41, 1-Ethyl-3-{3-[1-(3-methyl-benzyl)-1H-pyrazol-4-yl]-pyrido[2,3-b]pyrazin-6-yl}-thiourea] displayed a melting point of 258 to 261 °C. For the same molecule, the IC50 on PI3Kalpha is 184 nM. In addition, the IC50 at Erk2 stood at 400 nM. This molecule also had an EC50 in the data set with Hct116 of 3010 nM.
With `CCNC(=O)Nc1ccc2ncc(-c3cnn(Cc4ccc(OC)c(OC)c4)c3)nc2n1` [Compound 42, 1-{3-[1-(3,4-Dimethoxy-benzyl)-1H-pyrazol-4-yl]-pyrido[2,3-b]pyrazin-6-yl}-3-ethyl-urea], the melting point came out at 205 °C. Besides, the IC50 on PI3Kalpha is 274 nM. In addition, the IC50 at Erk2 came out at 43 nM. In the data set with Hct116, this molecule had an EC50 of 1980 nM.
`CCNC(=S)Nc1ccc2ncc(-c3cnn(Cc4ccccc4)c3)nc2n1` [Compound 45, 1-[3-(1-Benzyl-1H-pyrazol-4-yl)-pyrido[2,3-b]pyrazin-6-yl]-3-ethyl-thiourea] came in with a melting point of 252 °C. The IC50 on PI3Kalpha was 249 nM. The IC50 at Erk2 is 272 nM. The EC50 with Hct116 turned out to be 1950 nM.
Molecule `CCNC(=S)Nc1ccc2ncc(-c3cnn(Cc4ccc(O)c(OC)c4)c3)nc2n1` [Compound 55, 1-Ethyl-3-{3-[1-(4-hydroxy-3-methoxy-benzyl)-1H-pyrazol-4-yl]-pyrido[2,3-b]pyrazin-6-yl}-thiourea] gave a melting point of 242 °C. The IC50 on PI3Kalpha turned out to be 391 nM. Besides, the IC50 at Erk2 was determined as 523 nM.
On to `CCNC(=S)Nc1ccc2ncc(-c3cnn(Cc4cccc(S(C)(=O)=O)c4)c3)nc2n1` [Compound 65, 1-Ethyl-3-{3-[1-(3-methanesulfonyl-benzyl)-1H-pyrazol-4-yl]-pyrido[2,3-b]pyrazin-6-yl}-thiourea], for which the results for the IC50 at PI3Kalpha and on Erk2 were 180 nM and 225 nM, respectively. The molecule also registered an EC50 with Hct116 of 2110 nM.
Regarding `CCNC(=S)Nc1ccc2ncc(-c3cnn(Cc4ccc(O)cc4)c3)nc2n1` [Compound 210, 1-Ethyl-3-{3-[1-(4-hydroxy-benzyl)-1H-pyrazol-4-yl]-pyrido[2,3-b]pyrazin-6-yl}-thiourea], the melting point turned out to be 257 °C. In addition, at PI3Kalpha, the IC50 amounted to 208 nM. On Erk2, the IC50 was found to be 225 nM. The response in the data set on Hct116 was half-maximal at 1700 nM (EC50).

For the origin of these results see patent US8912189B2, “Pyridopyrazine derivatives and their use” (Aeterna Zentaris GmbH, priority 2011, dated 2014).
